Where “and” joins values, the source holds several entries; their conditions need not be identical. Equal values may be shown once. Read-outs that look alike come from different tables or passages of the source.
Legend:
HCV replicon = format: cell-based, hepatitis C virus
Sindbis replicon = format: cell-based, Sindbis virus; settings: for Sindbis Mixed Viral Replicon Culture % of Control (ave): Table 3
RSV minigenome [1] = format: cell-based, Respiratory syncytia virus (RSV)
RSV minigenome [2] = format: cell-based, Respiratory syncytia virus (RSV); remark: listed apart in the source
YFR replicon = format: cell-based, yellow fever virus; settings: for YFR Mixed Viral Replicon Culture % of Control (ave): co-cultured HCV/Sindbis/YFR replicons

NC(=O)c1ncn([C@@H]2O[C@H](CO)[C@@H](O)[C@H]2O)n1 [Ribavirin, ribavirin]
HCV Mixed Viral Replicon Culture % of Control (ave) (HCV replicon): 100.37 % of Control and 101.51 % of Control and 99.75 % of Control and 110.22 % of Control
effect on HCV replication (HCV replicon): no effect
effect on Sindbis replicon replication (Sindbis replicon): did inhibit
Sindbis Mixed Viral Replicon Culture % of Control (ave) (Sindbis replicon; Ribavirin 0.5 μg/ml): 40.54 % of Control
Sindbis Mixed Viral Replicon Culture % of Control (ave) (Sindbis replicon; Ribavirin 1 μg/ml): 62.98 % of Control
Sindbis Mixed Viral Replicon Culture % of Control (ave) (Sindbis replicon; Ribavirin 10 μg/ml): 35.04 % of Control
Sindbis Mixed Viral Replicon Culture % of Control (ave) (Sindbis replicon; Ribavirin 100 μg/ml): 18.11 % of Control
RSV Mixed Viral Culture % of Control (ave) (RSV minigenome [1]; Ribavirin 0.5 μ/ml): 96.16 % of Control
RSV Mixed Viral Culture % of Control (ave) (RSV minigenome [1]; Ribavirin 1 μ/ml): 44.14 % of Control
RSV Mixed Viral Culture % of Control (ave) (RSV minigenome [1]; Ribavirin 10 μ/ml): 42.42 % of Control
RSV Mixed Viral Culture % of Control (ave) (RSV minigenome [1]; Ribavirin 100 μ/ml): 13.90 % of Control
RSV Single Viral Culture % of Control (ave) (RSV minigenome [2]; Ribavirin 0.5 μ/ml): 97.31 % of Control
RSV Single Viral Culture % of Control (ave) (RSV minigenome [2]; Ribavirin 1 μ/ml): 17.86 % of Control
RSV Single Viral Culture % of Control (ave) (RSV minigenome [2]; Ribavirin 10 μ/ml): 3.74 % of Control
RSV Single Viral Culture % of Control (ave) (RSV minigenome [2]; Ribavirin 100 μ/ml): 2.82 % of Control

α-interferon [IFNα]
inhibition of HCV replicon (HCV replicon): > 91%
inhibition of Sindbis replicon (Sindbis replicon): > 98%
inhibition of YFR replicon (YFR replicon; 100 u/ml IFNα, mixed viral replicon culture): > 81%
YFR Mixed Viral Replicon Culture % of Control (ave) (YFR replicon; IFNα 1 Units/ml): 41.47 % of Control
YFR Mixed Viral Replicon Culture % of Control (ave) (YFR replicon; IFNα 10 Units/ml): 26.09 % of Control
YFR Mixed Viral Replicon Culture % of Control (ave) (YFR replicon; IFNα 100 Units/ml): 18.64 % of Control
RSV Mixed Viral Culture % of Control (ave) (RSV minigenome [1]; IFN-α 100 Units/ml): 84.30 % of Control
RSV Mixed Viral Culture % of Control (ave) (RSV minigenome [1]; IFN-α 1000 Units/ml): 77.80 % of Control
RSV Single Viral Culture % of Control (ave) (RSV minigenome [2]; IFN-α 100 Units/ml): 84.30 % of Control
RSV Single Viral Culture % of Control (ave) (RSV minigenome [2]; IFN-α 1000 Units/ml): 47.29 % of Control

— patent publication US6750009B2 (priority 2002, dated 2004)
